Measurements published in US5169854A, “N-substituted-furylalkenyl hydroxamic acid and N-hydroxyurea compounds having lipoxygenase inhibitory activity” (Abbott Laboratories, priority 1992, dated 1992).

What was measured:
Leukotriene Biosynthesis = experiment: Inhibition of leukotriene biosynthesis in vivo after oral administration, rat peritoneal anaphylaxis model; settings: oral gavage 100 μmol/kg, one hour prior to antigen challenge, peritoneal fluid leukotrienes 15 min after challenge
Protocol: Inhibition of the biosynthesis of leuktrienes in vivo after oral administration of compound was determined using a rat peritoneal anaphylaxis model in a similar manner as that described by Young and coworkers (Young, P. R.; Dyer, R. D.; Carter, G. W. Fed. Proc., Fed. Am. Soc. Exp. Biol. 1985 (44), 1185). In this model rats were injected intraperitoneally (ip) with rabbit antibody to bovine serum albumin (BSA) and three hours later injected ip with BSA to induce an antgen-antibody response. Rats were sacrificed 15 minutes after this challenge and the peritoneal fluids were collected and analyzed for leukotriene levels. Test compounds were administered by gavage one hour prior to the antigen challenge. Percent inhibition values were determined by comparing the treatment group to the mean of the control group.

5-Lipoxygenase = molecular target: T1, 5-Lipoxygenase (Homo sapiens, UniProt P09917); experiment: Inhibition of calcium ionophore A23187-induced LTB4 biosynthesis in human whole blood (5-Lipoxygenase Inhibitory Activity); format: cell-based; set-up: endogenous in cells; host or cells: human heparinized whole blood (blood leukocytes)
T1 sequence (P09917 1-674): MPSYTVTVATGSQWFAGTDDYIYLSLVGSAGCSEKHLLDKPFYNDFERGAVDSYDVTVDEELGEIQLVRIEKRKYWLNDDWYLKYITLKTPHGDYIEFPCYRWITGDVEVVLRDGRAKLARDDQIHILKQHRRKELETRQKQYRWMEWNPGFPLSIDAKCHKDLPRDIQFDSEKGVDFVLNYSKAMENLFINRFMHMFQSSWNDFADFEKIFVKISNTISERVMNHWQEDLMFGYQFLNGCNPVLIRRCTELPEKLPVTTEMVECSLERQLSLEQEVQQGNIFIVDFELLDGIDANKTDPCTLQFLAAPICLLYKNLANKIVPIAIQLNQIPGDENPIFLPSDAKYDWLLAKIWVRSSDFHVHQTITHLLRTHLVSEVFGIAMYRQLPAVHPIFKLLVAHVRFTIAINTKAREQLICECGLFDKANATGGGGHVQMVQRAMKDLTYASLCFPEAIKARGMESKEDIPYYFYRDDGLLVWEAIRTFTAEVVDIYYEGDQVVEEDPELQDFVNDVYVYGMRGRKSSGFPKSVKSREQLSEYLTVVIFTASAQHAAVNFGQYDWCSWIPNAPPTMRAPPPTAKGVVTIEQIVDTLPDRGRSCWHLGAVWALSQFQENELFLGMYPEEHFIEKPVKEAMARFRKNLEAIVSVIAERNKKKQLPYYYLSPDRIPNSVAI
Protocol: Inhibition of leukotriene biosynthesis was evaluated in an assay, involving calcium ionophore-induced LTB4 biosynthesis expressed human whole blood. Human heparinized whole blood was preincubated with test compounds or vehicle for 15 min at 37° C. followed by calcium ionophore A23187 challenge (final concentration of 8.3 μM) and the reaction terminated after 30 min by adding two volumes of methanol containing prostaglandin B2 as an internal recovery standard. The methanol extract was analyzed for LTB4 using a commercially available radioimmunoassay.

Compound	Percent Inhibition of Leukotriene Biosynthesis at an Oral Dose of 100 μmol/kg (Leukotriene Biosynthesis) [%]	IC50 (5-Lipoxygenase; human heparinized whole blood, LTB4 by radioimmunoassay, A23187 8.3 μM, 15 min preincubation at 37° C.) [nM]	5-Lipoxygenase Inhibitory Activity, percent inhibition (5-Lipoxygenase; at 0.39 (10^-6 M), human whole blood LTB4) [%]
CC(/C=C/c1ccc(Oc2ccc(F)cc2)o1)N(O)C(N)=O (stereo not shown) [Example 1, E-N-[4-(5-(4-Fluorophenoxy)-2-furanyl)but-3-en-2-yl]-N-hydroxyurea]	98	160	–
NC(=O)N(O)CC=Cc1ccc(Oc2ccccc2)o1 [Example 2, N-hydroxy-N-[3-(5-phenoxyfur-2-yl)prop-2-enyl]urea]	99	–	–
Z-N-[4-(5-(4 -fluorophenoxy)-2-furanyl)-2-fluorobut-3-en-2-yl]-N-hydroxyurea [Example 3]	–	–	77
